One experiment concerns the target T1, DHX33 protein (Mus musculus, UniProt Q80VY9).
T1 construct: purified full-length DHX33 protein; made in house; host or cells: E. coli BL-21pLysS (DE3)
T1 sequence (Q80VY9 1-698): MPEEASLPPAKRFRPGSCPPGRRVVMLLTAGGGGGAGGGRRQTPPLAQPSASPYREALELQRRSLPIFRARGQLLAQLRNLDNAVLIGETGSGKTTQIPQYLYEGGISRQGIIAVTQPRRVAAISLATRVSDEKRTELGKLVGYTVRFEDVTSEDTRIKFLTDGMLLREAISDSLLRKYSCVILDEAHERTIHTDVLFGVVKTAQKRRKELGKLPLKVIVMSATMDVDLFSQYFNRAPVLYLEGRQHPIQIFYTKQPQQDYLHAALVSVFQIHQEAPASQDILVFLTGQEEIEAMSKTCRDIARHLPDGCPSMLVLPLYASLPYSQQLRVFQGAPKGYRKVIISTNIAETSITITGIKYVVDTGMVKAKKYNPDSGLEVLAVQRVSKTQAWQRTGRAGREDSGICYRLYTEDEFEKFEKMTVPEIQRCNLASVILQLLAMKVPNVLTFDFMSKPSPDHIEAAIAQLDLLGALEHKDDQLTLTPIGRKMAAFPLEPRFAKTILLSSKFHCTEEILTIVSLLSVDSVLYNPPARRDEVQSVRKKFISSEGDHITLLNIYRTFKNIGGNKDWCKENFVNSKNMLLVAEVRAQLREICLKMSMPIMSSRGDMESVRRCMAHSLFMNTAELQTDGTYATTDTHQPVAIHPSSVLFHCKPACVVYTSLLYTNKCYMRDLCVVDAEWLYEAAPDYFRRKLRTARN
The experiment in a line: Inhibition of the helicase activity of DHX33 protein in vitro. The format is biochemical. The note with it: recombinant DHX33 protein, compound 1-1000 nM, 37° C., 60 minutes; read-out: IC50 (inhibitory effects of the compounds on the helicase activity of DHX33 protein). The procedure:
Biochemistry. 2019:58 (4):250-8. RNA helicase gene (mouse DHX33 gene) was cloned into a pET32M-3C vector (between BamH I/Not I restriction sites). Afterward, the plasmid was transformed into BL-21pLysS (DE3) E. coli. 0.5 mM isopropyl 1-thio-βp-D-galactopyranoside (IPTG) was added, and the expression of the recombinant protein was induced at 16° C. for 16 hours. Cells were allowed to precipitate and were resuspended in a cell lysis buffer [50 mM Tris-HCl (pH7.2), 150 mM NaCl, 1% Triton X-100, and 50 mM imidazole supplemented with a protease inhibitor]. Thereafter, cells were subjected to ultrasonic treatment and centrifuged at a rotation speed of 13000 rpm for 25 minutes. The supernatant was incubated with the nickel-nitrilotriacetic acid beads equilibrated in Tris buffer, followed by sufficient washing. Thereafter, the purified protein was eluted with a solution of 300 mM imidazole in Tris buffer, and was then subjected to dialysis against an imidazole-free Tris buffer at 4° C. overnight.
The components involved in the reaction for testing the helicase activity were added to a 96-well opaque white plate. The method was outlined as follows. The 96-well plate was coated with neutravidin at a final concentration of 10 μg/mL (100 μl/well) overnight at 4° C. Afterwards, the neutravidin-coated plate was blocked with 100 μL of 0.1% (w/v) BSA (dissolved in normal PBS) at 22° C. for 2 hours. After washing, a DNA duplex (2.5 ng) that was resulted from the annealing of two single-stranded DNA oligonucleotides (the sequence of one single strand was biotin-labeled 5′-[…]-3′; and the sequence of the other single strand was DIG-labeled 5′-[…]-3′) [the annealing reaction was carried out in PBS (pH 7.0) containing 1M NaCl] was added, and the resulting mixture was incubated at 22° C. for 4 hours. After the addition of 90 μL of the reaction mixture, the helicase reaction was initiated [0.25 pig of purified full-length DHX33 protein, dissolved in 25 mM 4-MOPS (pH 7.0), 5 mM ATP 2 mM DTT, 3 mM MnCl2 and 100 μg/mL BSA]. The reaction was conducted at 37° C. for 60 minutes. After being washed, each well was incubated with a blocking solution [10% (w/v) BSA in 0.1 M maleic acid and 0.15 M NaCl (pH 7.5)] for 30 minutes, and was then incubated with 20 μL of antibody solution (anti-DIG-AP, Roche, in blocking buffer) for 30 minutes. After being washed with 100 μL of detection buffer [0.1 M Tris-HCl and 0.1 M NaCl (pH 9.5)], each well was added with 1 μL of chemiluminescent substrate (CSPD-0.25 mM), and the plate was incubated at 17° C. for 5 minutes. Afterwards, the plate was patted dry and incubated at 37° C. for 30 minutes. The remaining DIG-AP marker control in each well was counted for 10 minutes by a luminescence multi-well plate reader (Enspire, PerkinElmer). Higher reading indicated weaker helicase activity.
Positive control and negative controls were set for this acticity assay. Among them, one negative control group, which differed from the experimental group only in that the former was not added with ATP (other conditions were the same as the experimental group), was used for the comparison with the experimental group; another negative control group, which differed from the experimental group only in that the former was not added with DHX33 protein (other conditions were the same as the experimental group), was used for the comparison with the experimental group. The positive control group was set for the comparison with the wild-type DHX33 protein (standard substance).
Biochemistry. 2019:58 (4):250-8.
Compounds having a series of concentration (the concentrations were set at 1 nM, 5 nM, 10 nM, 20 nM, 50 nM, 100 nM, 250 nM, 500 nM, and 1000 nM) were used to conduct the helicase activity assay of […] protein in vitro. The half-maximal inhibitory concentrations of the compounds of the present disclosure on the helicase activity of […] protein were as shown in Table 1.

In another experiment the test system is U251-MG cells. The experiment in a line: Half-maximal cell-inhibitory concentration on U251-MG cells (CCK-8). It counts as cell-based. The settings on record: Homo sapiens, U-251, U251-MG cells (DHX33-overexpressing cancer cell strain), 48 hours, read-out: IC50 (half-maximal inhibitory concentrations of compounds on U251-MG cells). The procedure:
U251-MG cells were purchased from the cell bank of the Chinese Academy of Sciences. Cells were cultured in MEM medium containing 10% fetal bovine serum (FBS), 2 mM L-glutammie, streptomycmn and penicillin. The growth conditions were set as follows: a humidified cell incubator (37° C., 5% CO2). Cells were passaged every 3 days and were discarded after 10 passages.
U251-MG cells (a […]-overexpressing cancer cell strain) were seeded on a 96-well plate at 1×10^4 cells/100 μl/well. After the cells were completely attached, the compounds were added to the cell culture medium at a concentration of 5 nM, 10 nM, 25 nM, 50 nM, 100 nM, […], 500 nM, 1000 nM, 2000 nM, […] or 20 μM, and the resulting mixture was uniformly mixed with a multichannel pipette. After the cells were incubated with the compound for 48 hours, CCK-8 reagent (Yeasen Biotechnology (Shanghai) Co., Ltd.) was added to the medium in the 96-well plate in accordance with the standard procedure. After being incubated for 2 hours, the plate was read with a microplate reader (OD=450 nm). The experiment was repeated three times, the inhibition curve of the compound at different concentrations was plotted, and the half-maximal inhibitory concentration (IC50) of the compound was calculated.

Consider `COc1ccc2nc(/C(C#N)=C/c3cc(C)n(-c4oc(C)c(C)c4C#N)c3C)[nH]c2c1` [AB24202, (E)-2-(3-(2-cyano-2-(6-methoxy-1H-benzo[d]imidazol-2-yl)vinyl)-2,5-dimethyl-1H-pyrrol-1-yl)-4,5-dimethylfuran-3-carbonitrile], for which the results for the IC50 at DHX33 protein and with U251-MG cells were 20 to 100 nM and 100 to 1000 nM, respectively.

In the case of `Cc1oc(-n2c(C)cc(/C=C(\C#N)c3nc4ccc(F)cc4[nH]3)c2C)c(C#N)c1C` [AB24205], the IC50 on DHX33 protein lay within 100 to 400 nM; in the experiment with U251-MG cells it was 1000 to 5000 nM.

Consider `Cc1oc(-n2c(C)cc(/C=C(\C#N)c3nc4ccc(C(F)(F)F)cc4[nH]3)c2C)c(C#N)c1C` [AB24243, (E)-2-(3-(2-cyano-2-(6-(trifluoromethyl)-1H-benzo[d]imidazol-2-yl)vinyl)-2,5-dimethyl-1H-pyrrol-1-yl)-4,5-dimethylfuran-3-carbonitrile], for which the results for the IC50 at DHX33 protein and in the experiment with U251-MG cells were 100 to 400 nM and 1000 to 5000 nM, respectively.

As to `Cc1oc(-n2c(C)cc(/C=C(\C#N)c3nc4ccncc4[nH]3)c2C)c(C#N)c1C` [AB24249], the IC50 on DHX33 protein lay in the range of 100 to 400 nM; in the experiment on U251-MG cells it was 5000 to 20000 nM.

`COc1cc2nc(/C(C#N)=C/c3cc(C)n(-c4oc(C)c(C)c4C#N)c3C)[nH]c2cn1` [AB24254, (E)-2-(3-(2-cyano-2-(6-methoxy-3H-imidazo[4,5-c]pyridin-2-yl)vinyl)-2,5-dimethyl-1H-pyrrol-1-yl)-4,5-dimethylfuran-3-carbonitrile]: the IC50 was under 20 nM on DHX33 protein and under 100 nM in the experiment on U251-MG cells.

On to `Cc1cc(/C=C(\C#N)c2nc3ccccc3[nH]2)c(C)n1-c1ccncc1` [AB24259], for which the IC50 on DHX33 protein fell in the range of 100 to 400 nM; in the experiment on U251-MG cells, 1000 to 5000 nM.

In the case of `Cc1sc(-n2c(C)cc(/C=C(\C#N)c3nc4ccccc4[nH]3)c2C)c(C#N)c1C` [AB24264, (E)-2-(3-(2-(1-(1-H-benzo[d]imidazol-2-yl]-2-cyanovinyl])-2,5-dimethyl-1H-pyrrol-1-yl)-4,5-dimethylthiophene-3-carbonitrile], the IC50 was 100 to 400 nM at DHX33 protein and 1000 to 5000 nM in the experiment on U251-MG cells.

In the case of `Cc1cc(C#N)c(-n2c(C)cc(/C=C(\C#N)c3nc4ccccc4[nH]3)c2C)s1` [AB24270, (E)-2-(3-(2-(1H-benzo[d]imidazol-2-yl)-2-cyanovinyl)-2,5-dimethyl-1H-pyrrol-1-yl)-5-methylthiophene-3-carbonitrile], the figures for the IC50 on DHX33 protein and in the experiment on U251-MG cells were 20 to 100 nM and 100 to 1000 nM, respectively.

In the case of `Cc1cc(/C=C(\C#N)c2nc3ccccc3[nH]2)c(C)n1-c1oc(-c2ccccc2)cc1C#N` [AB24283, (E)-2-(3-(2-(1H-benzo[d]imidazol-2-yl)-2-cyanovinyl)-2,5-dimethyl-1H-pyrrol-1-yl)-5-phenylfuran-3-carbonitrile], the IC50 on DHX33 protein is 100 to 400 nM; in the experiment with U251-MG cells, 1000 to 5000 nM.

With `COc1cc2nc(/C(C#N)=C/c3cc(C)n(-c4sc(C)cc4C#N)c3C)[nH]c2cn1` [AB24288, (E)-2-(3-(2-cyano-2-(6-methoxy-3H-imidazo[4,5-c]pyridin-2-yl)vinyl)-2,5-dimethyl-1H-pyrrol-1-yl)-5-methylthiophene-3-carbonitrile], the IC50 on DHX33 protein was under 20 nM; in the experiment with U251-MG cells, under 100 nM.

Regarding `COc1ccc2c(c1)[nH]c1cc(-c3cc(C)n(-c4sc(C)cc4C#N)c3C)ccc12` [AB24350, 2-(3-(7-methoxy-9H-carbazol-2-yl)-2,5-dimethyl-1H-pyrrol-1-yl)-5-methylthiophene-3-carbonitrile], the IC50 on DHX33 protein was in the range of 100 to 400 nM.

In the case of `COc1cc2nc(/C(C#N)=C/c3cc(C)n(Cc4ccccn4)c3C)[nH]c2cn1` [AB29507, (E)-3-(2,5-dimethyl-1-(pyridin-2-ylmethyl)-1H-pyrrol-3-yl)-2-(6-methoxy-3H-imidazo[4,5-c]pyridin-2-yl)acrylonitrile], the IC50 in the experiment on U251-MG cells is under 100 nM.

In the case of `COc1cc2nc(/C(C#N)=C/c3cc(C)n(Cc4cnccn4)c3C)[nH]c2cn1` [AB29508, (E)-3-(2,5-dimethyl-1-(pyrazin-2-ylmethyl)-1H-pyrrol-3-yl)-2-(6-methoxy-3H-imidazo[4,5-c]pyridin-2-yl)acrylonitrile], the IC50 with U251-MG cells is under 100 nM.

In the case of `COc1ccc2nc(NC(=O)c3cc(C)n(-c4sc(C)nc4C#N)c3C)[nH]c2c1` [AB29509, 1-(4-cyano-2-methylthiazol-5-yl)-N-(6-methoxy-1H-benzo[d]imidazol-2-yl)-2,5-dimethyl-1H-pyrrole-3-carboxamide], the IC50 in the experiment on U251-MG cells fell in the range of 100 to 1000 nM.

`COc1ccc2nc(NC(=O)c3cc(C)n(-c4oc(C)c(C)c4C#N)c3C)[nH]c2c1` [AB29510, 1-(3-cyano-4,5-dimethylfuran-2-yl)-N-(6-methoxy-1H-benzo[d]imidazol-2-yl)-2,5-dimethyl-1H-pyrrole-3-carboxamide]: in the experiment with U251-MG cells, the IC50 lay within 100 to 1000 nM.

As for `COc1cc2nc(/C(C#N)=C/c3cc(C)n(Cc4ccncc4)c3C)[nH]c2cn1` [AB29512, (E)-3-(2,5-dimethyl-1-(pyridin-4-ylmethyl)-1H-pyrrol-3-yl)-2-(6-methoxy-3H-imidazo[4,5-c]pyridin-2-yl)acrylonitrile], in the experiment on U251-MG cells, the IC50 was under 100 nM.

For the compound `COc1ccc2nc(NC(=O)c3cc(C)n(Cc4cnn(C)c4)c3C)[nH]c2c1` [AB29513, N-(6-methoxy-1H-benzo[d]imidazol-2-yl)-2,5-dimethyl-1-((1-methyl-1H-pyrazol-4-yl)methyl)-1H-pyrrole-3-carboxamide], the IC50 in the experiment on U251-MG cells lay within 5000 to 20000 nM.

With `COC(=O)c1cc(Cl)sc1-n1c(C)cc(/C=C(\C#N)c2nc3cc(OC)ncc3[nH]2)c1C` [AR24318], the IC50 in the experiment on U251-MG cells is 100 to 1000 nM.
